From patent publication US6414154B1, “Tetraisoquinoline derivatives as modulators of dopamine D3 receptors” (SmithKline Beecham p.l.c., priority 1998, dated 2002)
Counter-ions that a name gives are not always drawn.

Target: T1, human D3 dopamine receptors (Homo sapiens, UniProt P35462)
T1 construct: expressed in transfected cells; host or cells: CHO cells (crude cell membranes)
Assay: displacement of [125I] iodosulpride binding to cloned human D3 dopamine receptors expressed in CHO cells
Conditions: 0.1 nM [125I] iodosulpride, CHO cell membranes, 30 min at 37° C.; read-out: pKi at the D3 receptor (converted)
Method: The inhibition constants (Ki) of test compounds for displacement of [^125I] iodosulpride binding to human D3 dopamine receptors expressed in CHO cells were determined as follows. […] Cultures were grown as monolayers or in suspension in standard cell culture media. Cells were recovered by scraping (from monolayers) or by centrifugation (from suspension cultures), and were washed two or three times by suspension in phosphate buffered saline followed by collection by centrifugation. Cell pellets were stored frozen at −40° C. Crude cell membranes were prepared by homogenisation followed by high-speed centrifugation, and characterisation of cloned receptors achieved by radioligand binding.
Cell pellets were gently thawed at room temperature, and resuspended in about 20 volumes of ice-cold 50 mM Tris salts (pH 7.4@37° C.), 20 mM EDTA, 0.2 M sucrose. The suspension was homogenised using an Ultra-Turrax at full speed for 15 sec. The homogenate was centrifuged at 18,000 r.p.m for 20 min at 4° C. in a Sorvall RC5C centrifuge. The membrane pellet was resuspended in ice-cold 50 mM Tris salts (pH 7.4@37° C.), using an Ultra-Turrax, and recentrifuged at 18,000 r.p.m for 15 min at 4° C. in a Sorvall RC5C. The membranes were washed two more times with ice-cold 50 mM Tris salts (pH 7.4@37° C.). The final pellet was resuspended in 50 mM Tris salts (pH 7.4@37° C.), and the protein content determined using bovine serum albumin as a standard (Bradford, M. M. (1976) Anal. Biochem. 72, 248-254).
Crude cell membranes were incubated with 0.1 nM [^125I] iodosulpride (˜2000 Ci/mmol; Amersham, U. K.), and the test compound in a buffer containing 50 mM Tris salts (pH 7.4@37° C.), 120 mM NaCl, 5 mM KCl, 2 mM CaCl2, 1 mM MgCl2, 0.1% (w/v) bovine serum albumin, in a total volume of 1 ml for 30 min at 37° C. Following incubation, samples were filtered using a Brandel Cell Harvester, and washed three times with ice-cold 50 mM Tris salts (pH 7.4@37° C.), 120 mM NaCl, 5 mM KCl, 2 mM CaCl2, 1 mM MgCl2. The radioactivity on the filters was measured using a Cobra gamma counter (Canberra Packard). Non-specific binding was defined as the radioligand binding remaining after incubation in the presence of 100 μM iodosulpride. For competition curves, 14 concentrations (half-log dilutions) of competing cold drug were used. Competition curves were analysed simultaneously whenever possible using non-linear least-squares fitting procedures, capable of fitting one, two or three site models.

T1 sequence (P35462 whole entry): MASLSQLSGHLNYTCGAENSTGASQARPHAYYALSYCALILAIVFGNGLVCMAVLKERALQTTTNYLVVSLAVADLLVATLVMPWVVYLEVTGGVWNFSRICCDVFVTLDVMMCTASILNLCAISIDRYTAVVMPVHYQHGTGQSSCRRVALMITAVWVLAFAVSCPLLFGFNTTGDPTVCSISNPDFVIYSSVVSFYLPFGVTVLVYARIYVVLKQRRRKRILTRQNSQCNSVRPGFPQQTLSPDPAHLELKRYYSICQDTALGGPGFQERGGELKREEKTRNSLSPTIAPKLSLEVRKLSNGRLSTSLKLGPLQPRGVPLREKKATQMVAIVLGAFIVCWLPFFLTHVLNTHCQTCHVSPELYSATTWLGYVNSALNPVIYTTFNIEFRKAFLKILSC

A Ki of 3.16 to 12.6 nM was found for `N#Cc1ccc2c(c1)CCN(CC[C@H]1CC[C@H](NC(=O)Cc3cc4ccccc4o3)CC1)C2` [Example 31, trans-6-Cyano-2-(2-(1-(4-(2-benzofuranyl)acetamido)-cyclohexyl)ethyl)-1,2,3,4-tetrahydroisoquinoline] in this work.
A Ki of 3.16 to 12.6 nM was found for `N#Cc1ccc2c(c1)CCN(CC[C@H]1CC[C@H](NC(=O)Cc3ccc(F)cc3)CC1)C2` [Example 32, trans-6-Cyano-2-(2-(1-(4-(4-fluorophenyl)acetamido)cyclohexyl)ethyl)-1,2,3,4-tetrahydroisoquinoline, Hydrochloride] in this work.
